Assay results taken from the supplement of paper PMC10307832.

Legend:
Experiment in all cases: relative viability (nuclei count vs DMSO), 5 days (fraction); higher = more cells survive
AGI-6780 + Trametinib = compound: O=C(Nc1cccc(C(F)(F)F)c1)Nc1cc(S(=O)(=O)NC2CC2)ccc1-c1ccsc1 [AGI-6780] + CC(=O)Nc1cccc(-n2c(=O)n(C3CC3)c(=O)c3c(Nc4ccc(I)cc4F)n(C)c(=O)c(C)c32)c1 [Trametinib] (partner 0.02 µM)
Summary of the method: (§1)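 For relative viability, nuclei counts in treated wells were divided by those in vehicle wells. Lung cancer cell lines had been pin-tool dosed in 1536-well plates the day after seeding and cultured for 5 days, then fixed and stained in one step (final 0.05% Triton X-100, 1% formaldehyde, 1 ug/ml Hoechst) and imaged at 4×. Doses were one drug alone or a fixed anchor-drug dose plus five library-drug doses (not always all listed) in √10 steps, and values are duplicate-plate medians.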

AGI-6780 + Lapatinib = compound: O=C(Nc1cccc(C(F)(F)F)c1)Nc1cc(S(=O)(=O)NC2CC2)ccc1-c1ccsc1 [AGI-6780] + CS(=O)(=O)CCNCc1ccc(-c2ccc3ncnc(Nc4ccc(OCc5cccc(F)c5)c(Cl)c4)c3c2)o1 [Lapatinib] (partner 2 µM)
Summary of the method: as §1

AGI-6780 + Olaparib = compound: O=C(Nc1cccc(C(F)(F)F)c1)Nc1cc(S(=O)(=O)NC2CC2)ccc1-c1ccsc1 [AGI-6780] + O=C(c1cc(Cc2n[nH]c(=O)c3ccccc23)ccc1F)N1CCN(C(=O)C2CC2)CC1 [Olaparib] (partner 8 µM)
Summary of the method: as §1

AGI-6780 + Phenformin = compound: O=C(Nc1cccc(C(F)(F)F)c1)Nc1cc(S(=O)(=O)NC2CC2)ccc1-c1ccsc1 [AGI-6780] + N=C(N)NC(=N)NCCc1ccccc1 [Phenformin] (partner 250 µM)
Summary of the method: as §1

| Cell Line | relative viability (AGI-6780 + Trametinib; first compound 0.08 µM) | relative viability (AGI-6780 + Trametinib; first compound 0.253 µM) | relative viability (AGI-6780 + Trametinib; first compound 0.8 µM) | relative viability (AGI-6780 + Trametinib; first compound 2.53 µM) | relative viability (AGI-6780 + Trametinib; first compound 8 µM) | relative viability (AGI-6780 + Lapatinib; first compound 0.08 µM) | relative viability (AGI-6780 + Lapatinib; first compound 0.253 µM) | relative viability (AGI-6780 + Lapatinib; first compound 0.8 µM) | relative viability (AGI-6780 + Lapatinib; first compound 2.53 µM) | relative viability (AGI-6780 + Lapatinib; first compound 8 µM) | relative viability (AGI-6780 + Olaparib; first compound 0.08 µM) | relative viability (AGI-6780 + Olaparib; first compound 0.253 µM) | relative viability (AGI-6780 + Olaparib; first compound 0.8 µM) | relative viability (AGI-6780 + Olaparib; first compound 2.53 µM) | relative viability (AGI-6780 + Olaparib; first compound 8 µM) | relative viability (AGI-6780 + Phenformin; first compound 0.08 µM) | relative viability (AGI-6780 + Phenformin; first compound 0.253 µM) | relative viability (AGI-6780 + Phenformin; first compound 0.8 µM) | relative viability (AGI-6780 + Phenformin; first compound 2.53 µM) | relative viability (AGI-6780 + Phenformin; first compound 8 µM) |
| --- | --- | --- | --- | --- | --- | --- | --- | --- | --- | --- | --- | --- | --- | --- | --- | --- | --- | --- | --- | --- |
| NCI-H1793 | 0.393 | 0.359 | 0.479 | 0.416 | 0.423 | 0.819 | 0.811 | 0.779 | 0.491 | 0.723 | 0.904 | 0.845 | 0.902 | 0.695 | 0.805 | 0.458 | 0.406 | 0.386 | 0.264 | 0.365 |
| HOP-62 | 0.366 | 0.321 | 0.316 | 0.321 | 0.396 | 0.974 | 0.888 | 0.965 | 1.06 | 1.06 | 0.47 | 0.303 | 0.197 | 0.536 | 0.452 | 0.684 | 0.663 | 0.876 | 0.689 | 0.763 |
| HCC-827 | 0.457 | 0.518 | 0.518 | 0.435 | 0.476 | 0.201 | 0.215 | 0.197 | 0.191 | 0.179 | 0.73 | 0.659 | 0.661 | 0.53 | 0.651 | 0.423 | 0.39 | 0.413 | 0.395 | 0.376 |
| NCI-H2087 | 0.253 | 0.183 | 0.218 | 0.213 | 0.194 | 1.04 | 1.05 | 0.926 | 0.976 | 0.98 | 0.674 | 0.563 | 0.524 | 0.53 | 0.637 | 0.5 | 0.502 | 0.471 | 0.438 | 0.492 |
| RERF-LC-KJ | 0.859 | 0.862 | 0.828 | 0.674 | 0.774 | 0.828 | 0.923 | 0.788 | 0.675 | 0.859 | 0.928 | 0.892 | 0.943 | 0.906 | 0.878 | 0.421 | 0.455 | 0.439 | 0.367 | 0.411 |
| NCI-H2342 | 0.866 | 0.72 | 0.772 | 0.723 | 0.981 |  |  |  |  |  | 0.407 | 0.437 | 0.504 | 0.497 | 0.565 | 0.572 | 0.759 | 0.636 | 0.53 | 0.793 |
| A-427 |  | 0.7 | 0.797 | 0.559 | 0.725 | 1.09 | 0.997 | 1.01 | 0.945 | 0.929 |  | 0.712 | 0.738 | 0.649 | 0.732 | 0.326 | 0.294 | 0.359 | 0.315 | 0.338 |
| HARA | 1.02 | 0.638 | 0.685 | 0.707 | 0.628 | 0.872 | 0.825 | 0.613 | 0.681 | 0.707 | 0.847 | 0.945 | 0.311 | 0.893 | 0.83 | 0.402 | 0.483 | 0.436 | 0.324 | 0.399 |
| HCC-78 | 0.824 | 0.629 | 0.925 | 0.924 | 0.775 | 0.66 | 0.702 | 0.821 | 0.485 | 0.992 | 0.897 | 0.798 | 1.06 | 0.665 | 0.849 |  | 0.735 | 0.814 | 0.716 | 0.607 |
| ABC-1 |  |  |  |  |  | 1.26 | 1.2 | 1.27 | 1.16 | 1.27 |  | 0.965 | 0.888 | 0.779 | 0.792 | 0.218 | 0.263 | 0.238 | 0.263 | 0.197 |
| Calu-6 |  |  |  |  |  | 0.989 | 1.01 | 1.22 | 1.14 | 0.974 | 0.598 | 0.601 | 0.584 | 0.559 | 0.543 |  |  |  |  |  |
| NCI-H1563 |  |  |  |  |  | 1.03 | 0.924 | 0.987 | 0.881 | 0.903 |  |  |  |  |  | 0.671 | 0.666 | 0.66 | 0.643 | 0.672 |
| EBC-1 |  |  |  |  |  | 0.224 | 0.21 | 0.198 | 0.202 | 0.201 | 0.788 | 0.789 | 0.664 | 0.655 | 0.747 |  |  |  |  |  |
| ChaGo-K-1 | 0.876 | 0.799 | 0.888 | 0.815 | 0.871 |  |  |  |  |  | 0.437 | 0.457 | 0.377 | 0.411 | 0.422 | 0.494 | 0.562 | 0.503 | 0.452 | 0.543 |
| A549 |  |  |  |  |  | 0.999 | 0.968 | 1.14 | 0.927 | 1.06 | 0.32 | 0.298 | 0.337 | 0.302 | 0.377 | 0.153 | 0.177 | 0.25 | 0.133 | 0.175 |
| NCI-H1299 |  |  |  |  |  | 1.01 | 0.978 | 0.925 | 0.929 | 0.968 | 0.982 | 0.964 | 0.948 | 0.908 | 0.961 |  |  |  |  |  |
